pIC50: −log10 of the molar value.
These compounds were tested against T1, Recombinant human CBP containing the bromodomain (CBP-BD (1043-1159)) (Homo sapiens, UniProt Q92793) (assay: CBP Alphascreen binding assay). Conditions: read-out: CREBBP (CBP) IC50.
T1 construct: Recombinant human CBP bromodomain (CBP-BD (1043-1159)); made in house; host or cells: E. coli BL21-CodonPlus (DE3), modified pET vector
Protocol: CBP Alphascreen Binding Assay
Binding of compounds of Formula (I) with CBP was assessed using Alphascreen™ binding assay. The inhibition of the interaction between the CBP bromodomain and its acetylated target protein was measured quantitatively using recombinant CBP, an acetylated Histone 3 peptide and AlphaScreen™ technology. In absence of inhibition of the CBP protein bound to AlphaScreen™ nickel chelate acceptor beads can interact with the acetylated Histone 3 peptide which was immobilized by the AlphaScreen™ Streptavidin coated beads. This interaction brings donor and acceptor beads in proximity. The close proximity allows the singlet oxygen produced by laser excitation of the donor beads to reach the acceptor beads and generate a luminescence signal. CBP inhibitors result in a decrease in the proximity signal through an inhibition of the CBP—acetylated peptide interaction.
Recombinant human CBP containing the bromodomain (CBP-BD (1043-1159)) was prepared and purified as described in protein expression and purification session. The peptide was human Histone H345-64K56Ac-Biotin (Anaspec CA, USA).
Protocol for CBP assay: All components are prepared in buffer composed of 50 mM HEPES pH 7.5, 50 mM NaCl, 0.01% BSA, 0.01% Triton X-100, 2 mM DTT. Test compounds and DMSO vehicle are diluted 1:50 in buffer and a 4 μL volume was transferred to an Alphaplate. 5.5 μL of CBP protein and 5.5 μL of peptide are added to wells containing 4 μL of various concentrations of test compounds of Formula (I) or DMSO vehicle in an Alphaplate (PerkinElmer GA, USA) and incubated for 1 hour at room temperature. 5 μL donor and acceptor bead mixture was then added with final concentrations of 7.5 μg/ml. 60 minutes after bead addition, Alpha signal was read on the Envision spectrometer (λEx 680 nm, λEm 520-620 nm). Final concentrations of bromodomain proteins and peptide are as shown below.
All data were normalized to the mean of 16 high and 16 low control wells on each plate. A four parameter curve fit of the following formula was then applied: Y=A+((B−A)/(1+((C/x)^D))) Where ‘A’ is the minimum, ‘B’ is the maximum, ‘C’ is the IC50 and ‘D’ is the Hill slope. Protein Expression and Purification
Recombinant human CBP bromodomain (CBP-BD (1043-1159)) was expressed in E. coli cells (in a modified pET vector) with an N-terminal six-His tag and purified using a combination of both IMAC (Ni-affinity) and size exclusion chromatography steps.
Recombinant CBP protein was expressed using the E. coli strain BL21-CodonPlus (DE3) (Agilent Technologies CA, USA). Cells were grown in Terrific Broth (TB) media to an OD600 of 0.92 at 37° C. at which temperature was reduced to 20° C., protein was induced with 1.0 mM isopropyl-β-D-thiogalactopyranoside (“IPTG”) for 20 hours and harvested by centrifugation at 8500×g for 20 minutes. Cells were re-suspended in 0.1M K2PO4 pH 8.0, 250 mM NaCl, 10% Glycerol, 0.75% NP-40, 25 mM Imidazole, with 0.2 mg/ml Lysozyme, 0.2 mM phenylmethanesulfonyl fluoride (“PMSF”), […] (“BME”), 25 μg/ml DNase I, incubated on ice for 30 minutes and lysed with a cell disruptor (MicroFluidics MA, USA). The lysate was clarified by centrifugation at 20,000×g for 1 hour. The protein was captured with Ni-NTA resin (Life Technologies, USA). Contaminating proteins were washed off with 40 mM HEPES pH 7.5, 500 mM NaCl, 5% Glycerol, 5 mM Imidazole, and 5 mM BME. Following 3× wash steps, protein was eluted using 400 mM Imidazole in 40 mM HEPES pH 7.5, 400 mM NaCl, and 5 mM BME. The protein was further purified using a size exclusion column (26/600 Superdex 200, GE Biosciences NJ, USA) in 40 mM HEPES pH 7.5, 250 mM NaCl, 5 mM BME. The protein was aliquoted and flash-frozen in liquid Nitrogen.

T1 sequence (Q92793 1081-1197): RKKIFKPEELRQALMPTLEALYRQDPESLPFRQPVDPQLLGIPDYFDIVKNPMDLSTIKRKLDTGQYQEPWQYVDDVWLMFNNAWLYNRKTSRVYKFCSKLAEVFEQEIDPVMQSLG

Row | Compound | pIC50
1 | Cc1ccc(S(=O)(=O)n2cc(-c3ccc(C(=O)O)cc3)c3cc(-c4c(C)noc4C)cnc32)cc1 [P-0006, 4-(5-(3,5-dimethylisoxazol-4-yl)-1-tosyl-1H-pyrrolo[2,3-b]pyridin-3-yl)benzoic acid] | 5.10 to 6.00
2 | Cc1noc(C)c1-c1cnc2c(c1)c(-c1ccc(C(=O)O)cc1)cn2C(c1ccccn1)C1CC1 (stereo not shown) [P-0007, 4-(1-(cyclopropyl(pyridin-2-yl)methyl)-5-(3,5-dimethylisoxazol-4-yl)-1H-pyrrolo[2,3-b]pyridin-3-yl)benzoic acid] | 6.00 to 10.00
3 | Cc1noc(C)c1-c1cnc2c(c1)c(-c1ccc(C(=O)O)cc1)cn2C(c1ccccn1)C1CCC1 (stereo not shown) [P-0008, 4-(1-(cyclobutyl(pyridin-2-yl)methyl)-5-(3,5-dimethylisoxazol-4-yl)-1H-pyrrolo[2,3-b]pyridin-3-yl)benzoic acid] | 6.00 to 10.00
4 | Cc1noc(C)c1-c1cnc2c(CC3CCC3)cn(-c3ccc(C(=O)O)cn3)c2c1 [P-0009, 6-(3-(cyclobutylmethyl)-6-(3,5-dimethylisoxazol-4-yl)-1H-pyrrolo[3,2-b]pyridin-1-yl)nicotinic acid] | 6.00 to 10.00
5 | Cc1noc(C)c1-c1cnc2c(CC3CC3)cn(-c3ccc(C(=O)O)cn3)c2c1 [P-0010, 6-(3-(cyclopropylmethyl)-6-(3,5-dimethylisoxazol-4-yl)-1H-pyrrolo[3,2-b]pyridin-1-yl)nicotinic acid] | 6.00 to 10.00
6 | Cc1noc(C)c1-c1cnc2c(Cc3ccccn3)cn(-c3ccc(C(=O)O)cn3)c2c1 [P-0011, 6-(6-(3,5-dimethylisoxazol-4-yl)-3-(pyridin-2-ylmethyl)-1H-pyrrolo[3,2-b]pyridin-1-yl)nicotinic acid] | 5.10 to 6.00
7 | Cc1noc(C)c1-c1cnc2c(c1)c(-c1ccc(C(=O)O)cc1)cn2C(c1ccccn1)c1ccccn1 [P-0012, 4-(1-(di(pyridin-2-yl)methyl)-5-(3,5-dimethylisoxazol-4-yl)-1H-pyrrolo[2,3-b]pyridin-3-yl)benzoic acid] | 6.00 to 10.00
8 | Cc1noc(C)c1-c1cnc2c(c1)c(-c1ccc(C(=O)O)cc1F)cn2[C@@H](C)c1ccccn1 [P-0097, (S)-4-(5-(3,5-dimethylisoxazol-4-yl)-1-(1-(pyridin-2-yl)ethyl)-1H-pyrrolo[2,3-b]pyridin-3-yl)-3-fluorobenzoic acid] | 6.00 to 10.00
9 | COc1ccc(C(=O)O)cc1-n1cc(CC2CCC2)c2ncc(-c3c(C)noc3C)cc21 [P-0098, 3-(3-(cyclobutylmethyl)-6-(3,5-dimethylisoxazol-4-yl)-1H-pyrrolo[3,2-b]pyridin-1-yl)-4-methoxybenzoic acid] | 6.00 to 10.00
10 | Cc1noc(C)c1-c1cnc2c(C(=O)c3cccc(OC(F)F)c3)cn(-c3ccnc(C(=O)O)c3)c2c1 [P-0099, 4-(3-(3-(difluoromethoxy)benzoyl)-6-(3,5-dimethylisoxazol-4-yl)-1H-pyrrolo[3,2-b]pyridin-1-yl)picolinic acid] | 6.00 to 10.00
11 | Cc1noc(C)c1-c1cnc2c(Cc3cccc(OC(F)F)c3)cn(-c3ccnc(C(=O)O)c3)c2c1 [P-0100, 4-(3-(3-(difluoromethoxy)benzyl)-6-(3,5-dimethylisoxazol-4-yl)-1H-pyrrolo[3,2-b]pyridin-1-yl)picolinic acid] | 6.00 to 10.00
12 | Cc1noc(C)c1-c1cnc2c(c1)c(-c1cccc(C(=O)O)c1)cn2CC1CC(F)(F)C1 [P-0101, 3-(1-((3,3-difluorocyclobutyl)methyl)-5-(3,5-dimethylisoxazol-4-yl)-1H-pyrrolo[2,3-b]pyridin-3-yl)benzoic acid] | 6.00 to 10.00
13 | Cc1noc(C)c1-c1cnc2c(c1)c(-c1cccc(C(=O)O)c1)cn2CC1(C)COC1 [P-0102, 3-(5-(3,5-dimethylisoxazol-4-yl)-1-((3-methyloxetan-3-yl)methyl)-1H-pyrrolo[2,3-b]pyridin-3-yl)benzoic acid] | 5.10 to 6.00
14 | COc1cc(C(=O)O)cc(OC)c1-c1cn([C@@H](C)c2ccccn2)c2ncc(-c3c(C)noc3C)cc12 [P-0103, (S)-4-(5-(3,5-dimethylisoxazol-4-yl)-1-(1-(pyridin-2-yl)ethyl)-1H-pyrrolo[2,3-b]pyridin-3-yl)-3,5-dimethoxybenzoic acid] | 6.00 to 10.00
15 | Cc1noc(C)c1-c1cnc2c(CC3CCC3)cn(-c3ccc(C#N)c(C(=O)O)c3)c2c1 [P-0104, 2-cyano-5-(3-(cyclobutylmethyl)-6-(3,5-dimethylisoxazol-4-yl)-1H-pyrrolo[3,2-b]pyridin-1-yl)benzoic acid] | 6.00 to 10.00
16 | Cc1noc(C)c1-c1cnc2c(CC3CCC3)cn(-c3ccc(C(=O)O)c(C#N)c3)c2c1 [P-0105, 2-cyano-4-(3-(cyclobutylmethyl)-6-(3,5-dimethylisoxazol-4-yl)-1H-pyrrolo[3,2-b]pyridin-1-yl)benzoic acid] | 6.00 to 10.00
17 | Cc1noc(C)c1-c1cnc2c(c1)c(-c1cncc(C(=O)O)n1)cn2[C@@H](C)c1ccccn1 [P-0106, (S)-6-(5-(3,5-dimethylisoxazol-4-yl)-1-(1-(pyridin-2-yl)ethyl)-1H-pyrrolo[2,3-b]pyridin-3-yl)pyrazine-2-carboxylic acid] | 5.10 to 6.00
18 | Cc1noc(C)c1-c1cnc2c(c1)c(-c1nccc(C(=O)O)n1)cn2[C@@H](C)c1ccccn1 [P-0107, (S)-2-(5-(3,5-dimethylisoxazol-4-yl)-1-(1-(pyridin-2-yl)ethyl)-1H-pyrrolo[2,3-b]pyridin-3-yl)pyrimidine-4-carboxylic acid] | 5.10 to 6.00
19 | CCOc1cc(C(=O)O)cc(F)c1-n1cc(CC2CCC2)c2ncc(-c3c(C)noc3C)cc21 [P-0108, 4-(3-(cyclobutylmethyl)-6-(3,5-dimethylisoxazol-4-yl)-1H-pyrrolo[3,2-b]pyridin-1-yl)-3-ethoxy-5-fluorobenzoic acid] | 6.00 to 10.00
20 | CCOc1cc(C(=O)O)cc(OCC)c1-n1cc(CC2CCC2)c2ncc(-c3c(C)noc3C)cc21 [P-0109, 4-(3-(cyclobutylmethyl)-6-(3,5-dimethylisoxazol-4-yl)-1H-pyrrolo[3,2-b]pyridin-1-yl)-3,5-diethoxybenzoic acid] | 6.00 to 10.00
21 | Cc1noc(C)c1-c1cnc2c(CC3CCC3)cn(-c3ccc(C(=O)O)c4ccoc34)c2c1 [P-0110, 7-(3-(cyclobutylmethyl)-6-(3,5-dimethylisoxazol-4-yl)-1H-pyrrolo[3,2-b]pyridin-1-yl)benzofuran-4-carboxylic acid] | 6.00 to 10.00
22 | Cc1noc(C)c1-c1cnc2c(CC3CCC3)cn(-c3c(OC(C)C)cc(C(=O)O)cc3OC(C)C)c2c1 [P-0111, 4-(3-(cyclobutylmethyl)-6-(3,5-dimethylisoxazol-4-yl)-1H-pyrrolo[3,2-b]pyridin-1-yl)-3,5-diisopropoxybenzoic acid] | 6.00 to 10.00
23 | Cc1noc(C)c1-c1cnc2c(c1)c(-c1ccc(C(=O)O)cc1OC(C)C)cn2[C@@H](C)c1ccccn1 [P-0112, (S)-4-(5-(3,5-dimethylisoxazol-4-yl)-1-(1-(pyridin-2-yl)ethyl)-1H-pyrrolo[2,3-b]pyridin-3-yl)-3-isopropoxybenzoic acid] | 6.00 to 10.00
24 | CCCOc1cc(C(=O)O)ccc1-c1cn([C@@H](C)c2ccccn2)c2ncc(-c3c(C)noc3C)cc12 [P-0113, (S)-4-(5-(3,5-dimethylisoxazol-4-yl)-1-(1-(pyridin-2-yl)ethyl)-1H-pyrrolo[2,3-b]pyridin-3-yl)-3-propoxybenzoic acid] | 6.00 to 10.00
25 | CCOc1cc(C(=O)O)ccc1-c1cn([C@@H](C)c2ccccn2)c2ncc(-c3c(C)noc3C)cc12 [P-0114, (S)-4-(5-(3,5-dimethylisoxazol-4-yl)-1-(1-(pyridin-2-yl)ethyl)-1H-pyrrolo[2,3-b]pyridin-3-yl)-3-ethoxybenzoic acid] | 6.00 to 10.00
